How the values were obtained:
Type in all cases: in vivo, human
[1] = test system: Prostate-specific antigen; assay: Serum prostate-specific antigen levels in a metastatic PCa patient; details: week 0 10.7 ng/ml
Description: (§1) Patient Information A hormone-naïve person with newly diagnosed metastatic PCa was consented and was enrolled into the study. They were initiated on combined androgen blockade with bicalutamide and goserelin acetate. Magnetic resonance imaging scans were acquired at weeks 0 (baseline), 2, and 8 following treatment initiation which were used to generate the Functional Diffusion Maps at the 2 and 8 week time intervals. Due to pain and pathologic fracture, the patient was also treated with palliative radiation therapy encompassing the sacrum and ilium at 2 weeks post initiation of androgen deprivation therapy.
Clinical Correlates Serum samples were obtained at weeks 0 (baseline), 2, and 8 following treatment initiation. Prostate-specific antigen levels were quantified and expressed in […] of plasma.

[2] = test system: metastatic PCa osseous lesions; assay: fDM and mean ADC diffusion MRI of osseous lesions in a metastatic PCa patient; details: for mean ADC, femoral head lesion: baseline 74.5×10^−6; for mean ADC, sacral lesion: baseline 110.8×10^−6; for mean ADC, ilium lesion: baseline 78.0×10^−6
Description: as §1
(§2) Magnetic Resonance Imaging Magnetic resonance imaging (MRI) examinations including diffusion-weighted and standard anatomic sequences were performed before and 2 weeks after initiation of therapy. MR imaging was performed on a 3-T scanner (Achieva model; Philips Medical Systems, Bothell, Wash.) using a quadrature body coil for transmission and a six-channel cardiac coil for reception. Standard sequences for depiction of anatomy and tumor extent included axial proton density (repetition time [TR]/echo time [TE]=2700/30 msec, two averages) turbo spin-echo and axial T2-weighted turbo spin-echo (TR/TE=7800/60 msec, two averages) with fat suppression through a short inversion time (TI=200 msec). Geometry for these sequences was as follows: field of view, 281 mm right/left by 200 mm anterior/posterior; thirty-eight 4-mm sections with a 1-mm gap; 256—232 acquisition matrix for proton density; and 248 —165 for T2-weighted scans. Diffusion-weighted scans were acquired using fat-suppressed, single-shot, spinecho, echo-planar imaging to reduce motion artifact and parallel imaging (SENSE factor=2) to reduce spatial distortion. Geometry of the diffusion-weighted scans was as follows: 350 mm right/left by 302 mm anterior/posterior; thirty 5-mm sections with a 1-mm gap; 200—172 acquisition matrix; TR/TE=2000/58 msec; and 8 averages for low (b=0 sec/mm2) and 16 averages for high (b=800 sec/mm2) diffusion-sensitivity scans. Apparent diffusion coefficient (ADC) maps were calculated in the routine manner given by the logarithm of the ratio of low-b and high-b images, then scaled by the inverse of b-value difference.
Diffusion Analysis Lesions in MR images acquired at weeks 2 and 8 were coregistered to their corresponding pretreatment MR images using an automatic algorithm based on maximizing mutual information. Registration was accomplished for each individual tumor located in the sacrum, ilium, and femoral head regions after the images were cropped to localize the registration to a limited region-of-interest (ROI) containing a single lesion. Lesions were manually contoured by a radiologist who defined the ROI by inspection of all available image data. Diffusion-average data were generated for weeks 0, 2 and 8 using the ROI contours of each of the three lesions and the mean change in diffusion values were calculated. Computation of fDMs for each lesion at weeks 2 and 8 was accomplished by comparison of voxels within the tumor at weeks 2 and 8 with the pretreatment values (week 0) as previously described (see, e.g., Moffat B A, et al., (2005) Proc Natl Acad Sci USA 102 (15), 5524-5529; Hamstra D A, et al., (2005) Proc Natl Acad Sci USA 102 (46), 16759-16764; each herein incorporated by reference in their entireties) using MIAMI Fuse (University of Michigan, Ann Arbor, Mich.) (see, e.g., Meyer C R, et al., (1997) Med Image Anal 1 (3), 195-206; herein incorporated by reference in its entirety). The tumor was segmented into three different categories wherein the red voxels represent regions within the tumor where ADC values increased (>[…]), the blue voxels represent a decreased ADC (<[…]), and the green regions represent tumor diffusion values that were within these thresholds (e.g., unchanged). […]

[3] = test system: metastatic PCa osseous lesions; assay: Tumor volume by T2-weighted MRI in a metastatic PCa patient; details: for Tumor volume, Ilium: pretreatment 2.34; for Tumor volume, Femoral Head: pretreatment 52.97; for Tumor volume, Sacrum: pretreatment 68.29
Description: as §1, §2
At the time of initial diagnosis, the patient underwent Tc-99 m MDP BS to ascertain the extent of skeletal involvement. […] After receiving androgen deprivation therapy for 7 weeks, increased sclerosis was observed by CT (FIG. 9B, arrow). […] Further characterization of the lesions was achieved by MRI. […] Tumor volumes were quantified using ROI analysis of each of the three tumors evaluated using T2-weighted MR images at weeks 0, 2, and 8 post-treatment initiation. […] Overall, tumor volume measurements were unable to detect significant perturbations in tumor size in the 8-week timeframe following treatment initiation.

[4] = 8 weeks posttreatment, palliative radiation at 2 weeks
[5] = 8 weeks, palliative radiation at 2 weeks
[6] = Week 3 (so in the source), palliative radiation at 2 weeks

Substance: bicalutamide and goserelin acetate
- PSA level ([1]; week 2 posttreatment): 1.3 ng/mL
- PSA level ([1]; week 8 posttreatment): 0.3 ng/mL
- mean percentage change from baseline of mean ADC, three lesions ([2]; 2 weeks): −0.7±4.7%
- decrease of mean ADC with respect to pre-therapy baseline, three lesions ([2]; 2 weeks post-therapy (FIG. 12 legend)): 0.7±4.8%
- fDM, tumor volume with increased ADC, ilium lesion ([2]; 2 weeks posttreatment): 24.5%
- fDM, tumor volume with increased ADC, sacral lesion ([2]; 2 weeks posttreatment): 26.4%
- decrease in mean ADC, sacral lesion ([2]; 2 weeks vs baseline): ~10%
- mean ADC, femoral head lesion ([2]; 2 weeks): 77.8×10^−6 mm^2/sec
- mean ADC, sacral lesion ([2]; 2 weeks): 99.8×10^−6 mm^2/sec
- mean percentage change (increase) from baseline of mean ADC, three lesions ([2]; 8 weeks): 8.3±4.3%
- fDM, tumor volume with increased ADC, femoral head lesion ([2]; 8 weeks posttreatment): 36.4%
- fDM, tumor volume with increased ADC, ilium lesion [2, 4]: 47.1%
- fDM, tumor volume with increased ADC, sacral lesion [2, 4]: 29.0%
- increase in mean ADC above baseline, sacral lesion ([2]; 8 weeks vs baseline): ~5%
- increase in mean ADC, ilium lesion ([2]; 8 weeks vs baseline): 16.7%
- mean ADC, femoral head lesion ([2]; 8 weeks): 76.8×10^−6 mm^2/sec
- mean ADC, ilium lesion [2, 5]: 91.1×10^−6 mm^2/sec
- mean ADC, sacral lesion [2, 5]: 116.2×10^−6 mm^2/sec
- average fDM percent of tumor volume with increased diffusion, three lesions ([2]; week 2): 24±1.6%
- mean ADC, ilium lesion ([2]; week 2): 80.7×10^−6 mm^2/sec
- fDM, volume with significant increase in ADC, femoral head lesion ([2]; week 2 posttreatment): 21.1%
- average fDM percent of tumor volume with increased diffusion, three lesions ([2]; week 8): 38±5.2%
- Tumor volume, Ilium ([3]; Week 2): 2.76 cm^3
- Tumor volume, Femoral Head ([3]; Week 2): 51.52 cm^3
- Tumor volume, Sacrum ([3]; Week 2): 69.46 cm^3
- Tumor volume, Ilium [3, 6]: 2.56 cm^3
- Tumor volume, Femoral Head ([3]; Week 3 (so in the source)): 51.35 cm^3
- Tumor volume, Sacrum [3, 6]: 72.21 cm^3
